Results as given in patent US11242353B2, “Heterocyclic LSF inhibitors and their uses” (TRUSTEES OF BOSTON UNIVERSITY, priority 2020, dated 2022).
Like-named read-outs stand apart in the source and are kept apart here.

System: Huh7 cells
Assay: growth inhibition of Huh7 cells
Type: cell-based
Settings: single trials per figure (FIGS. 1A-4)
Protocol: FIGS. 1A-4 show results for growth inhibition of Huh7 cells upon contact with compounds (FQI-37Q), (FQI-34Q), (FQI-1Q), (JAK 196-22), and (JAK 196.23). Compounds (FQI-37Q) and (FQI-34Q) show high activities (GI50 about 0.5 μM and lower).

[1] = Homo sapiens, Huh-7, Huh7 cells, read-out: GI50 (growth inhibition of Huh7 cells)

SMILES	GI50 [1] [µM]	also measured
CCOc1ccccc1N1CC(=O)Nc2cc3c(cc21)OCO3 [FQI-1Q, 8-(2-ethoxyphenyl)-7,8-dihydro-[1,3]dioxolo[4,5-g]quinoxalin-6(5H)-one]	3.6	
CCOc1cc(N(C)C)ccc1N1CC(=O)Nc2cc3c(cc21)OCO3 [FQI-34Q, 8-(4-(dimethylamino)-2-ethoxyphenyl)-7,8-dihydro-[1,3]dioxolo[4,5-g]quinoxalin-6(5H)-one]		GI50 (Homo sapiens, Huh-7, read-out: GI50 (growth inhibition of Huh7 cells), Huh7 cells): ≤ 0.5 µM
CCOc1cc(N(C)C)ccc1N1CC(=O)Nc2cc3c(cc21)OCCO3 [FQI-37Q, 9-(4-(dimethylamino)-2-ethoxyphenyl)-2,3,8,9-tetrahydro-[1,4]dioxino[2,3-g]quinoxalin-7(6H)-one]		GI50 (read-out: GI50 (growth inhibition of Huh7 cells), Huh7 cells): 0.501 µM
COc1cc([N+](=O)[O-])ccc1-n1c(=O)cnc2cc3c(cc21)OCO3 [JAK 196-22]	> 10	
